Structures can show the parent of a compound that is named as a salt. Where two headings read alike, the source gives them in different places.
Assays:
[1] = Phase I multiple-ascending dose (MAD) pharmacokinetics, BID Days 1-4 and single morning dose Day 5; format: in vivo, human; conditions: for Tlast / Cmax / Tmax / half-life / AUC / concentration at 12 h / concentration at 24 h: fasting; for Cav, ss / Cmin / Tmin / AI: steady state; for AI: Day 5, mean; for Cmax / Tmax / half-life / AUC / concentration at 12 h / concentration at 24 h: human, plasma; for Cmax / Tmax / half-life / AUC: po; for AUC: read-out: AUC12; for concentration at 12 h / concentration at 24 h: read-out: Clast
Description: (§1) A phase I randomized, double-blind, placebo-controlled, adaptive-design, single-ascending dose (SAD) and multiple-ascending dose (MAD) study was conducted in healthy human subjects to evaluate the safety, tolerability, pharmacokinetics (PK), pharmacodynamics (PD), food effect, and optimal oral dose of 3-((1-cyclohexyl-4-oxo-8-(4-oxo-4-phenylbutyl)-1,3,8-triazaspiro[4.5]decan-3-yl)methyl)benzoic acid maleate (hereinafter, “the Maleate Salt”). The SAD phase included an arm to evaluate food effect on the PK of the Maleate Salt. The SAD phase also evaluated the effect of the Maleate Salt on ECG parameters, including an assessment of QT-interval changes using exposure-response analysis.
The Maleate Salt was formulated in the study as immediate-release, hard gelatin capsules for oral administration. Each capsule contained 5 mg or 25 mg of the Maleate Salt, as well as microcrystalline cellulose NF (AVICEL® PH-102), sodium starch glycolate NF (EXPLOTAB®), and magnesium stearate NF, all filled into a size 3 hard gelatin capsule. A matching placebo containing the same amount of microcrystalline cellulose NF in place of the Maleate Salt was used in the study. The Maleate Salt capsules and matching placebo capsules were packaged in high-density polyethylene (HDPE) bottles with polypropylene caps and stored at controlled conditions per the USP.
A total of 54 subjects received at least 1 dose of the Maleate Salt, ranging from 5 mg to the maximum single PO dose of 300 mg. Six subjects received a maximum single PO dose of 300 mg and 5 subjects received a total of 900 mg of the Maleate Salt over 5-day period (100 mg BID for 4 days with single 100 mg on Day 5).
The MAD phase had 2 cohorts dosed at 50 and 100 mg of the Maleate Salt. In each cohort, there were 6 active- and 2 placebo-treated subjects. The Maleate Salt was administered to fasting subjects BID (morning and evening) on Days 1 through 4 and as a single morning dose on Day 5.
On Day 1, mean T1/2 was approximately 2 h for both 50 and 100 mg BID doses. On Day 5, mean T1/2 was 11.0 and 6.2 h following 50 and 100 mg BID doses, respectively. For T1/2 determination, the plasma samples for Day 1 were only collected to 12 h, whereas the plasma samples for Day 5 were collected to 24 h.

[2] = target: T1, D2 receptor (Homo sapiens, UniProt P14416); assay: Clinical PD: serum prolactin concentration as marker of pharmacologic activity (D2 receptor target engagement); format: in vivo
T1 construct: from tissue; host or cells: healthy human subjects in vivo (lactotroph cells of the anterior pituitary gland)
T1 sequence (P14416 whole entry): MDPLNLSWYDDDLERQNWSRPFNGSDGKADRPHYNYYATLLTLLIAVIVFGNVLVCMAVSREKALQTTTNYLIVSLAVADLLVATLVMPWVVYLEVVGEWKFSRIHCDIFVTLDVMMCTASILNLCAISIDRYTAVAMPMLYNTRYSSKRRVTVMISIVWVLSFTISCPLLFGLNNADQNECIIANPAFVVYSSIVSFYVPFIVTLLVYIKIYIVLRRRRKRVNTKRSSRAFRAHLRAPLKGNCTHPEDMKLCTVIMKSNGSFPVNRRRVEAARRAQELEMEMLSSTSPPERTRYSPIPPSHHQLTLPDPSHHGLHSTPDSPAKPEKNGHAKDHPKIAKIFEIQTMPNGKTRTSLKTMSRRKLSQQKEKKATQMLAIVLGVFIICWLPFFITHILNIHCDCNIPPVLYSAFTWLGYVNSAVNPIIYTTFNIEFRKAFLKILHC
Description: as §1
In the same phase I study, serum prolactin concentrations were evaluated as a marker of pharmacologic activity (D2 receptor target engagement). Prolactin is primarily secreted from lactotroph cells of the anterior pituitary gland, and the release of prolactin from these cells is under inhibitory control by DA. Fitzgerald and Dinan, J. Psychopharmacol. 2008, 22, 12-19.
The increases were substantial compared to placebo. The prolactin response was maximal at the 10 mg dose of the Maleate Salt in the SAD phase.

O=C(O)c1cccc(CN2CN(C3CCCCC3)C3(CCN(CCCC(=O)c4ccccc4)CC3)C2=O)c1 [the Maleate Salt, 3-((1-cyclohexyl-4-oxo-8-(4-oxo-4-phenylbutyl)-1,3,8-triazaspiro[4.5]decan-3-yl)methyl)benzoic acid maleate]
Tlast ([1]; 50 mg BID PO, Day 1): 12.0 h
Tlast ([1]; 50 mg BID PO, Day 5): 24.0 h
Cav, ss ([1]; 50 mg BID PO, Day 5): 4.84 ng/mL
Cmin ([1]; 50 mg BID PO, Day 5): 0.32 ng/mL
Tmin ([1]; 50 mg BID PO, Day 5): 8.0 h
AI ([1]; 50 mg BID PO): 1.89
Tlast ([1]; 100 mg BID PO, Day 1): 12.0 h
Tlast ([1]; 100 mg BID PO, Day 5): 24.0 h
Cav, ss ([1]; 100 mg BID PO, Day 5): 16.71 ng/mL
Cmin ([1]; 100 mg BID PO, Day 5): 0.65 ng/mL
Tmin ([1]; 100 mg BID PO, Day 5): 4.8 h
AI ([1]; 100 mg BID PO): 1.38
Accumulation for AUC12 ([1]; 50 or 100 mg BID dosing): less than 30%
Accumulation for Cmax ([1]; 50 or 100 mg BID dosing): less than 40%
Cmax ([1]; 50 mg, 50 mg BID PO, Day 1): 23.3 ng/mL
Tmax ([1]; 50 mg, 50 mg BID PO, Day 1): 1.55 h
half-life ([1]; 50 mg, 50 mg BID PO, Day 1 (samples collected to 12 h)): ~2 h
AUC ([1]; 50 mg, 50 mg BID PO, Day 1): 53.6 ng·h/mL
Cmax ([1]; 50 mg, 50 mg BID PO, Day 5): 31.2 ng/mL
Tmax ([1]; 50 mg, 50 mg BID PO, Day 5): 1.17 h
half-life ([1]; 50 mg, 50 mg BID PO, Day 5 (samples collected to 24 h)): 11 h
AUC ([1]; 50 mg, 50 mg BID PO, Day 5): 58.1 ng·h/mL
Cmax ([1]; 100 mg, 100 mg BID PO, Day 1): 71.5 ng/mL
Tmax ([1]; 100 mg, 100 mg BID PO, Day 1): 1.03 h
half-life ([1]; 100 mg, 100 mg BID PO, Day 1 (samples collected to 12 h)): ~2 h
AUC ([1]; 100 mg, 100 mg BID PO, Day 1): 152 ng·h/mL
Cmax ([1]; 100 mg, 100 mg BID PO, Day 5): 71.6 ng/mL
Tmax ([1]; 100 mg, 100 mg BID PO, Day 5): 1.53 h
half-life ([1]; 100 mg, 100 mg BID PO, Day 5 (samples collected to 24 h)): 6.2 h
AUC ([1]; 100 mg, 100 mg BID PO, Day 5): 200 ng·h/mL
concentration at 12 h ([1]; 50 mg BID PO, Day 1): 0.2 ng/mL
concentration at 24 h ([1]; 50 mg BID PO, Day 5): 0.18 ng/mL
concentration at 12 h ([1]; 100 mg BID PO, Day 1): 0.42 ng/mL
concentration at 24 h ([1]; 100 mg BID PO, Day 5): 0.28 ng/mL
Accumulation in serum prolactin ([2]; MAD phase, after BID dosing for 5 days): little if any accumulation
Dose at which the prolactin response was maximal ([2]; SAD phase): 10 mg
Median serum prolactin Tmax ([2]; across all 48 single-dose administrations): approximately 1.1 h
Increases in serum prolactin compared to placebo ([2]; following oral administration): substantial
Serum prolactin concentration ([2]; following oral administration, SAD and MAD phases): increased rapidly

Reference: patent US11202776B2, “Treatment of gastroparesis with triazaspiro[4.5]decanone” (Millennium Pharmaceuticals, Inc., priority 2017, dated 2021)
